Assay results taken from ChEMBL document CHEMBL1158618, “Two new asterosaponins, archasterosides A and B, from the Vietnamese starfish Archaster typicus and their anticancer properties” (Bioorg Med Chem Lett, 2010).
Active and inactive are the calls of the source. The rule behind the calls is not given here.

What was measured:
[1] = Cytotoxicity against mouse promotion-sensitive JB6 Cl41 cells by MTS assay; assay type: cell-based
[2] = system: HeLa; assay: Cytotoxicity against human HeLa cells by MTS assay; assay type: functional, cell-based
[3] = Cytotoxicity against mouse promotion-sensitive JB6 Cl41 cells up to 50 uM by MTS assay; assay type: cell-based
[4] = target: Cellular tumor antigen p53 (Mus musculus) (UniProt P02340); assay: Induction of p53-dependent transcriptional activity in mouse JB6 Cl41 cells at 12.5 uM after 6 hrs; assay type: cell-based
[5] = target: Transcription factor Jun (Mus musculus) (UniProt P05627); assay: Induction of AP1-dependent transcriptional activity in mouse JB6 Cl41 cells at 125 uM after 6 hrs; assay type: cell-based
[6] = system: JB6 Cl41; assay: Induction of NF-kappaB-dependent transcriptional activity in mouse JB6 Cl41 cells at 125 uM after 6 hrs; assay type: cell-based

Chain of Transcription factor Jun (Mus musculus) (P05627 whole entry): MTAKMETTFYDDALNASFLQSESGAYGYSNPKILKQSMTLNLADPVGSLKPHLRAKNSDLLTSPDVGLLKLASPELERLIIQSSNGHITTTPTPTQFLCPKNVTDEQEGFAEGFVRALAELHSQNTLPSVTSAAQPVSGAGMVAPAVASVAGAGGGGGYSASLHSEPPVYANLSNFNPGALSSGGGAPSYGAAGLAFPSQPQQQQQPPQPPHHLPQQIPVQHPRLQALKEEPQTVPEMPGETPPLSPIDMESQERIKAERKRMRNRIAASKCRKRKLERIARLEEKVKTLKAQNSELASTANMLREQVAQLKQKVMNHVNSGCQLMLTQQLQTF
Chain of Cellular tumor antigen p53 (Mus musculus) (P02340 whole entry): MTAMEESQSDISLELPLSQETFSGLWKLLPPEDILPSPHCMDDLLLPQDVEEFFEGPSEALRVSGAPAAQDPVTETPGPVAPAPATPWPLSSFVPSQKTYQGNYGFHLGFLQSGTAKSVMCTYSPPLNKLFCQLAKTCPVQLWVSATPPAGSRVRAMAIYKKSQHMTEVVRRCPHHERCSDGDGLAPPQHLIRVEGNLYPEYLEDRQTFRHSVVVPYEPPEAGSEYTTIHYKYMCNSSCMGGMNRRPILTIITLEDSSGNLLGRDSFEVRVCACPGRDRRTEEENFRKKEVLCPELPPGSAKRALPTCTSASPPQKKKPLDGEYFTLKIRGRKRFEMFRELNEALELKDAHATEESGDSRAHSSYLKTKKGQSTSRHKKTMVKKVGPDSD

Row | SMILES | IC50 [1] [µM] | IC50 [2] [µM] | Activity [3] | fold change (FC) [4] | fold change (FC) [5] | Activity [6]
1 | CC[C@@H](C(C)C)[C@@H]1O[C@H]1[C@@](C)(O)[C@H]1[C@@H](O)C[C@H]2[C@@H]3C[C@H](O[C@@H]4O[C@H](CO)[C@@H](O)[C@H](O[C@@H]5O[C@H](C)[C@@H](O[C@@H]6O[C@H](C)[C@@H](O)[C@H](O)[C@H]6O[C@@H]6O[C@H](C)[C@H](O)[C@H](O)[C@H]6O)[C@H](O)[C@H]5O[C@@H]5O[C@H](C)[C@@H](O)[C@H](O)[C@H]5O)[C@H]4O)[C@H]4C[C@@H](OS(=O)(=O)O)CC[C@]4(C)C3=CC[C@]12C [ARCHASTEROSIDE A] | 37 | 24 |  |  |  | 
2 | CC(C)[C@H](C)[C@@H]1O[C@H]1[C@@](C)(O)[C@H]1[C@@H](O)C[C@H]2[C@@H]3C[C@H](O[C@@H]4O[C@H](CO)[C@@H](O)[C@H](O[C@@H]5O[C@H](C)[C@@H](O[C@@H]6O[C@H](C)[C@@H](O)[C@H](O)[C@H]6O[C@@H]6O[C@H](C)[C@H](O)[C@H](O)[C@H]6O)[C@H](O)[C@H]5O[C@@H]5O[C@H](C)[C@@H](O)[C@H](O)[C@H]5O)[C@H]4O)[C@H]4C[C@@H](OS(=O)(=O)[O-])CC[C@]4(C)C3=CC[C@]12C.[Na+] [REGULAROSIDE A] |  | 110 | Non-toxic |  |  | 
3 | CC(C)CCC[C@@](C)(O)[C@H]1[C@@H](O)C[C@H]2[C@@H]3C[C@H](O[C@@H]4O[C@H](C)[C@@H](O)[C@H](O[C@@H]5O[C@H](C)[C@@H](O[C@@H]6O[C@H](C)[C@@H](O)[C@H](O)[C@H]6O[C@@H]6O[C@H](C)[C@H](O)[C@H](O)[C@H]6O)[C@H](O)[C@H]5O[C@@H]5O[C@H](C)[C@@H](O)[C@H](O)[C@H]5O)[C@H]4O)[C@H]4C[C@@H](OS(=O)(=O)O)CC[C@]4(C)C3=CC[C@@]21C [ARCHASTEROSIDE B] | 18 | 14 |  | 1.3 | 1.7 | inactive
